Results from US20250257075A1, “MACROCYCLIC INHIBITORS OF KRAS FOR THE TREATMENT OF CANCER” (Hoffmann-La Roche Inc., priority 2022, published 2025).

What was measured:
[1] = test system: phosphorylation of ERK, KRAS G12V in SW620; test: pERK inhibition assay, G12V; format: cell-based, human; settings: Homo sapiens, SW-620; SW620, 4 hours of incubation
Summary of the method: (§1)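 NCI-H358 (G12C), AGS (G12D) and SW620 (G12V) cells were seeded overnight at 30,000, 20,000 and 30,000 cells/well, respectively. They were then treated 4 h with compound (0.5% DMSO final), fixed, and methanol-permeabilized. pERK was detected by in-cell ELISA (anti-pERK/HRP, TMB, OD450); IC50 from a 4-parameter sigmoidal fit.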

[2] = target: T1, KRAS G12C-BRAF complex (Homo sapiens, UniProt P01116+P62937, G12C); test: KRAS G12C-BRAF NanoBit assay in HEK293 cells; format: cell-based; settings: HEK293 stable cell pool, 3 hours of incubation
T1 construct: expressed in transfected cells
T1 sequence (P01116 1-188 isoform P01116-2 G12C): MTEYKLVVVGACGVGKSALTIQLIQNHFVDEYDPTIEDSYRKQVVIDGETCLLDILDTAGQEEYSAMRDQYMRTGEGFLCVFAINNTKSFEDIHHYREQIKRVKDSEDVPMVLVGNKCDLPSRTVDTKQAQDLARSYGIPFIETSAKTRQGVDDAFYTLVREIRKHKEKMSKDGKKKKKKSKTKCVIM
T1 sequence (P62937 whole entry): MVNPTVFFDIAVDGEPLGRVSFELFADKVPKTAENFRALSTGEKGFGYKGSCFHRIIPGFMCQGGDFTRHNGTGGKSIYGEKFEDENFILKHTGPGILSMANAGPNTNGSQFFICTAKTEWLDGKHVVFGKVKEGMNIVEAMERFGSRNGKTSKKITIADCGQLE
Procedure: This assay is to measure the ability of tested compounds in disruption of the KRAS G12C-BRAF complex at the cellular level, we established the NanoBit cellular assay in mammalian HEK293 (ATCC) cells. HEK293 cells were grown and maintained using DMEM medium (Thermo Fisher Scientific) with 10% fetal bovine serum and 1% penicillin/streptomycin. Both KRAS G12C and BRAF RBD were cloned into the NanoBit vectors ([…] vectors system, Promega) with the orientations SmBit-KRAS G12C and BRAF RBD-LgBit, respectively, and co-transfected into HEK293 cells. Cells were then selected with 100 μg/mL Hygromycin B (10687010, Thermo Fisher) and Blasticidin (5 μg/mL) for 4 weeks to get the stable cell pool. On the day of the assay, 75 nL of compound solution was presented in a 384-well assay plate as a 16-point 3-fold dilution starting from a final concentration of 30 μM in DMSO. Then cells were seeded at 10,000 cells/25 μL/well in a 384-well plate. After 3 hours of incubation, 6 μL of volume of Nano-Glo® Live Cell Substrate (Promega) was added into each well. Monitor luminescence using ultra384 model in Envision at 20 minutes. Compounds that facilitate disruption of the KRAS G12C-BRAF RBD complex were identified as those eliciting a decrease of luminescence relative to DMSO control wells.

[3] = test system: NCI-H358 cells (KRAS G12C); test: Cell viability assay, G12C; format: cell-based, human; settings: Homo sapiens; NCI-H358, 72 hrs, Cell Counting Kit-8
Procedure: (§2) The purpose of this cellular assay was to determine the effects of test compounds on the proliferation of human cancer cell lines NCI-H358 (ATCC-CRL5807) cells, AGS (ATCC-CRL-1739) cells, SW620 (ATCC-CCL-227) over a 3-day treatment period by quantifying the amount of NADPH present at endpoint using Cell Counting Kit-8.
(§3) Cells were seeded at 5,000 cells/well (NCI-H358), 2,000 cells/well (AGS) 2,000 cells/well (SW620) in 96-well assay plates (Corning-3699) and incubated overnight. On the day of the assay, diluted compounds were then added in a final concentration of 0.5% DMSO. After 72 hrs incubation, a tenth of the volume of cell counting kit 8 (Dnjindo-CK04) was added into each well. Read the signal (OD450 minus OD650) using EnVision after 2 hrs incubation. IC50 was determined by fitting a 4-parameter sigmoidal concentration response model.

[4] = test system: AGS cells (KRAS G12D); test: Cell viability assay, G12D; format: cell-based, human; settings: Homo sapiens, 72 hrs, Cell Counting Kit-8
Procedure: as §2, §3

[5] = target: KRAS G12D binding to BRAF (Homo sapiens, UniProt P01116+P62937, G12D); test: KRAS-BRAF with CYPA (500 nM) interaction assay (TR-FRET), G12D; format: biochemical; settings: 3 hours
KRAS G12D binding to BRAF, sequence (P01116 1-188 isoform P01116-2 G12D): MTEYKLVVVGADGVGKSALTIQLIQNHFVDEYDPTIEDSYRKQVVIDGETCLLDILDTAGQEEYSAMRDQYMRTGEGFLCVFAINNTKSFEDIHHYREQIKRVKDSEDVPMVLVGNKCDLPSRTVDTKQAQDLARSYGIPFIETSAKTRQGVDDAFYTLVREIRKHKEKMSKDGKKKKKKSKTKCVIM
KRAS G12D binding to BRAF, sequence (P62937 whole entry): as the sequence (P62937 whole entry) above
Procedure: (§4) Kras-BRAF with CYPA (500 nM) Interaction Assay In this example, TR-FRET was also used to measure the compound or compound-CYPA dependent disruption of the KRAS G12C-BRAF complex. This protocol was also used to measure disruption of KRAS G12D or KRAS G12V binding to BRAF by a compound of the invention, respectively. […] TR-FRET signal was read on a […] microplate reader (Ex320 nm, Em 665/615 nm). Compounds that facilitate disruption of the KRAS-BRAF complex were identified as those eliciting a decrease in the TR-FRET ratio relative to DMSO control wells.

[6] = test system: SW620 cells (KRAS G12V); test: Cell viability assay, G12V; format: cell-based, human; settings: Homo sapiens, SW-620; SW620, 72 hrs, Cell Counting Kit-8
Procedure: as §2, §3

[7] = target: T1, KRAS G12C-BRAF complex; test: KRAS-BRAF with CYPA (500 nM) interaction assay (TR-FRET), G12C; format: biochemical; settings: 3 hours
Procedure: as §4

[8] = test system: phosphorylation of ERK, KRAS G12D in AGS cells; test: pERK inhibition assay, G12D; format: cell-based, human; settings: Homo sapiens, 4 hours of incubation
Summary of the method: as §1

[9] = target: KRAS G12V binding to BRAF (Homo sapiens, UniProt P01116+P62937, G12V); test: KRAS-BRAF with CYPA (500 nM) interaction assay (TR-FRET), G12V; format: biochemical; settings: 3 hours
KRAS G12V binding to BRAF, sequence (P01116 1-188 isoform P01116-2 G12V): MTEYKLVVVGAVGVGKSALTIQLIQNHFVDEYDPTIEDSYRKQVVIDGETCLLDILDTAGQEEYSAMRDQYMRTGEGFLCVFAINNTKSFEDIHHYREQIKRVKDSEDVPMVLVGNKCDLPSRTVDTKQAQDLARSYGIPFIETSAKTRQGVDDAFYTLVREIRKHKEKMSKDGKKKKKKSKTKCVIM
KRAS G12V binding to BRAF, sequence (P62937 whole entry): as the sequence (P62937 whole entry) above
Procedure: as §4

[10] = test system: phosphorylation of ERK, KRAS G12C in NCI-H358 cells; test: pERK inhibition assay, G12C; format: cell-based, human; settings: Homo sapiens; NCI-H358, 4 hours of incubation
Summary of the method: as §1

Compound | IC50 [1] | IC50 [2] | IC50 [3] | IC50 [4] | IC50 [5] | IC50 [6] | IC50 [7] | IC50 [8] | IC50 [9] | IC50 [10]
CO[C@@H](C)c1ncc(N2CCN(C)CC2)cc1-c1c2c3cc(c(F)cc3n1CC(F)(F)F)-c1csc(n1)C[C@H](NC(=O)[C@H](C(C)C)N(C)C(=O)[C@H]1CC[C@H](C#CC(F)(F)F)CC1)C(=O)N1CCC[C@H](N1)C(=O)OCC(C)(C)C2 (atropisomer, axis not shown; (M)) [Example 9, trans-N-[(1S)-1-[[(7S,13S)-24-fluoro-(20M)-20-[2-[(1S)-1-methoxyethyl]-5-(4-methylpiperazin-1-yl)-3-pyridyl]-17,17-dimethyl-8,14-dioxo-21-(2,2,2-trifluoroethyl)-15-oxa-4-thia-9,21,27,28-tetrazapentacyclo[17.5.2.1^2,5.1^9,13.0^22,26]octacosa-1(25),2,5(28),19,22(26),23-hexaen-7-yl]carbamoyl]-2-methyl-propyl]-N-methyl-4-(3,3,3-trifluoroprop-1-ynyl)cyclohexanecarboxamide] | 0.498 µM | 0.418 µM | 0.436 µM | > 5 µM | 3.01 µM | > 5 µM | 0.819 µM | 1.77 µM | 1.98 µM | 0.292 µM
CO[C@@H](C)c1ncc(N2CCN(C)CC2)cc1-c1c2c3cc(c(F)cc3n1CC(F)(F)F)-c1csc(n1)C[C@H](NC(=O)[C@H](C(C)C)N(C)C(=O)[C@H]1CC[C@@H](C#CC(F)(F)F)CC1)C(=O)N1CCC[C@H](N1)C(=O)OCC(C)(C)C2 (atropisomer, axis not shown; (M)) [Example 10, cis-N-[(1S)-1-[[(7S,13S)-24-fluoro-(20M)-20-[2-[(1S)-1-methoxyethyl]-5-(4-methylpiperazin-1-yl)-3-pyridyl]-17,17-dimethyl-8,14-dioxo-21-(2,2,2-trifluoroethyl)-15-oxa-4-thia-9,21,27,28-tetrazapentacyclo[17.5.2.1^2,5.1^9,13.0^22,26]octacosa-1(25),2,5(28),19,22(26),23-hexaen-7-yl]carbamoyl]-2-methyl-propyl]-N-methyl-4-(3,3,3-trifluoroprop-1-ynyl)cyclohexanecarboxamide] | 0.065 µM | 0.12 µM | 0.078 µM | 0.876 µM | 1.91 µM | > 5 µM | > 10 µM | 0.152 µM | 1.48 µM | 0.048 µM
CO[C@@H](C)c1ncc(N2CCN(C)CC2)cc1-c1c2c3c(F)c(ccc3n1CC(F)(F)F)-c1csc(n1)C[C@H](NC(=O)[C@H](C(C)C)N(C)C(=O)[C@H]1C[C@@H](C#CC(F)(F)F)C1)C(=O)N1CCC[C@H](N1)C(=O)OCC(C)(C)C2 (atropisomer, axis not shown; (M)) [Example 12, cis-N-[(1S)-1-[[(7S,13S)-25-fluoro-(20M)-20-[2-[(1S)-1-methoxyethyl]-5-(4-methylpiperazin-1-yl)-3-pyridyl]-17,17-dimethyl-8,14-dioxo-21-(2,2,2-trifluoroethyl)-15-oxa-4-thia-9,21,27,28-tetrazapentacyclo[17.5.2.1^2,5.1^9,13.0^22,26]octacosa-1(25),2,5(28),19,22(26),23-hexaen-7-yl]carbamoyl]-2-methyl-propyl]-N-methyl-3-(3,3,3-trifluoroprop-1-ynyl)cyclobutanecarboxamide] | 0.201 µM | 0.067 µM | 0.033 µM | 3.1 µM | 1.47 µM | 0.36 µM | 0.063 µM | 0.667 µM | 0.484 µM | 0.092 µM
CO[C@@H](C)c1ncc(N2CCN(C)CC2)cc1-c1c2c3cc(c(F)cc3n1CC(F)(F)F)-c1csc(n1)C[C@H](NC(=O)[C@H](C(C)C)N(C)C(=O)[C@H]1C[C@@H](C#Cc3ncc(C(F)(F)F)cn3)C1)C(=O)N1CCC[C@H](N1)C(=O)OCC(C)(C)C2 (atropisomer, axis not shown; (M)) [Example 13, cis-N-[(1S)-1-[[(7S,13S)-24-fluoro-(20M)-20-[2-[(1S)-1-methoxyethyl]-5-(4-methylpiperazin-1-yl)-3-pyridyl]-17,17-dimethyl-8,14-dioxo-21-(2,2,2-trifluoroethyl)-15-oxa-4-thia-9,21,27,28-tetrazapentacyclo[17.5.2.1^2,5.1^9,13.0^22,26]octacosa-1(25),2,5(28),19,22(26),23-hexaen-7-yl]carbamoyl]-2-methyl-propyl]-N-methyl-3-[2-[5-(trifluoromethyl)pyrimidin-2-yl]ethynyl]cyclobutanecarboxamide] | 0.056 µM | 0.22 µM | 0.006 µM | 0.328 µM | > 10 µM | 0.036 µM | 0.065 µM | 1.81 µM | > 10 µM | 0.045 µM
CCn1c(-c2cc(N3CCN(C)CC3)cnc2[C@H](C)OC)c2c3cc(c(F)cc31)-c1csc(n1)C[C@H](NC(=O)[C@H](C(C)C)N(C)C(=O)N1CC(C#CC(F)(F)F)C1)C(=O)N1CCC[C@H](N1)C(=O)OCC(C)(C)C2 (atropisomer, axis not shown; (M)) [Example 14, N-[(1S)-1-[[(7S,13S)-21-ethyl-24-fluoro-(20M)-20-[2-[(1S)-1-methoxyethyl]-5-(4-methylpiperazin-1-yl)-3-pyridyl]-17,17-dimethyl-8,14-dioxo-15-oxa-4-thia-9,21,27,28-tetrazapentacyclo[17.5.2.1^2,5.1^9,13.0^22,26]octacosa-1(25),2,5(28),19,22(26),23-hexaen-7-yl]carbamoyl]-2-methyl-propyl]-N-methyl-3-(3,3,3-trifluoroprop-1-ynyl)azetidine-1-carboxamide] | 0.003 µM | 0.036 µM | 0.001 µM | > 10 µM | 4.3 µM | 0.007 µM | 1.66 µM | 0.02 µM | 1.88 µM | 0.005 µM
